Assay results taken from PubChem BioAssay AID602210 (Sanford-Burnham Center for Chemical Genomics, 2012).
Activity calls are given as the source filed them. How the calls were made is not given here.

Assay: modulators of 2-deoxyglucose-induced H9c2 death, dose response, myocardial damage modulator project, cell-based, ATPlite luminescence, rat, set 2 (AID 602210)
Settings: H9c2 rat cardiomyoblasts, 2-deoxyglucose-induced death, 2 h
With `COc1cc(C(=O)N/N=C/c2ccc(OC(=O)c3ccccc3)c(OC)c2)ccc1O` the IC50 was 14.8 µM (inactive). With `O=C(N/N=C/c1ccccn1)c1cc(-c2cccc3ccccc23)n[nH]1` the IC50 was 20.7 µM (inactive). For `COc1cc(/C=N/NC(=O)c2cccnc2)ccc1OS(=O)(=O)c1cc(C)ccc1C`, the IC50 was 18.5 µM (inactive). Work on `CCOC(=O)C1CCN(c2cc3c(cc2NC(=O)c2ccccc2)n(C)c(=O)n3C)CC1` yielded an IC50 of 10 µM. For `c1cc2[nH]snc2c2nc(C3CC3)nc12`, the IC50 was 10.6 µM (inactive). In the case of `COc1ccc(-c2cc3nc(C)cc(N4CCN(C(=O)c5ccoc5)CC4)n3n2)cc1`, the IC50 is reported as > 79 µM (inactive). For `COc1ccc(OC)c(Nc2nc(N)c([N+](=O)[O-])c(N3CCOCC3)n2)c1`, the IC50 was 27.5 µM (inactive). In the case of `NC(=O)c1nsc(C(=O)N(Cc2ccco2)C(C(=O)NCc2ccccc2)c2ccc(O)cc2)c1N` (stereo not given), the IC50 is reported as 14.9 µM (inactive). For `COc1cccc(-c2cnc3c(NC(C)=O)cc(-c4cccc(NS(C)(=O)=O)c4)cn23)c1`, the IC50 was 15.4 µM (inactive). In the case of `COc1ccc(-c2cc(-c3nnc(COC(=O)C4CC4C)o3)c3ccccc3n2)cc1OC` (stereo not given), the IC50 is reported as 10.3 µM (inactive). With `Cc1ncc(CO)c2c1Oc1nc(-c3ccccc3)nc(SCC(=O)N3CCCCC3)c1C2` the IC50 was > 79 µM (inactive). `CC(=O)N1CCN(c2ccccc2NC(=O)c2ccc(-c3cccc([N+](=O)[O-])c3)o2)CC1` gave an IC50 of 6.88 µM. For `COc1ccc(C(=O)Nc2nc(-c3ccccn3)cs2)cc1S(=O)(=O)N1CCOCC1`, the IC50 was 26.8 µM (inactive). `CC(=O)Nc1ccc(S(=O)(=O)N(Cc2cccnc2)Cc2cc3ccccc3[nH]c2=O)cc1` gave an IC50 of 5.82 µM. In the case of `COc1cc2nc(C3CCC3)nc(N3CCN(c4ccccn4)CC3)c2cc1OC`, the IC50 is reported as > 79 µM (inactive). With `O=C(N/N=C/c1ccccn1)c1[nH]c2ccc([N+](=O)[O-])cc2c1-c1ccccc1` the IC50 was > 79 µM (inactive). In the case of `COc1ccccc1NC(=O)CSc1ccc2nnc(-c3ccc(C)cc3)n2n1`, the IC50 is reported as > 79 µM (inactive). With `COc1cc(-c2cc(NC=O)c3ncc(-c4ccc(C(C)=O)cc4)n3c2)ccc1O` the IC50 was > 79 µM (inactive). For `NC(=O)c1oc2ccccc2c1NC(=O)c1ccco1`, the IC50 was 32.2 µM (inactive). In the case of `CCN(CC)C(=O)c1ccc(-c2nnc(Nc3ccc(O)cc3)c3ccccc23)cc1`, the IC50 is reported as 44.2 µM (inactive). In the case of `COc1cccc(/C=N/NC(=O)c2nc(-c3ccccc3)cc(-c3ccccc3)n2)c1`, the IC50 is reported as > 79 µM (inactive). With `COc1ccc(CN(C)C(=O)C(Cc2ccccc2)NC(=O)c2ccccc2)cc1F` (stereo not given) the IC50 was 10.5 µM (inactive). Work on `Cc1c(C(=O)NCC2COc3ccccc3O2)oc2ccc(S(=O)(=O)N3CCOCC3)cc12` (stereo not given) yielded an IC50 of 5.65 µM. `CN(C(=O)c1sc2nc(N3CCOCC3)c3c(c2c1N)CCCC3)c1ccccc1` gave an IC50 of 9.97 µM. For `CCn1c(O)c(/C=N/N=C2CCCCC2)c2cc(C3=NNC(=O)CC3)ccc21`, the IC50 was 21.6 µM (inactive). Compound `COc1cccc(-c2cnc3c(NC=O)cc(-c4ccc(O)c(OC)c4)cn23)c1` has an IC50 of 8.51 µM. Work on `COC(=O)c1cc2ccccn2c2c(C(=O)OC)c(C(=O)OC)cc1-2` yielded an IC50 of 5.26 µM. In the case of `c1cncc(-c2nc(NCC3COc4ccccc4O3)c3ccccc3n2)c1` (stereo not given), the IC50 is reported as > 79 µM (inactive). In the case of `COc1ccc(NC(=O)c2cc3c(=O)n(C)c4ccccc4c3n2C)cc1OC`, the IC50 is reported as > 79 µM (inactive). With `COc1cc(/C=C(\C#N)C(=O)Nc2ccccc2F)ccc1OCCN1CCOCC1` the IC50 was 41.2 µM (inactive). `C=CCn1cnc2c(c1=O)c1nc3ccccc3nc1n2/N=C/c1cc(OC)c(OC)c(OC)c1` showed an IC50 of 2.64 µM. Compound `CCOC(=O)C1=C(C)NC(C)=C(C(=O)OCC)C1C(=O)OCC(=O)NC1CCCCC1` has an IC50 of 7.05 µM. For `CCC(=O)N1CCN(c2ccccc2NC(=O)c2ccc(-c3cccc([N+](=O)[O-])c3)o2)CC1`, the IC50 was > 79 µM (inactive). With `COc1ccccc1CN(C)C(=O)c1cc(-c2cc(OC)c(OC)c(OC)c2)nc2ccccc12` the IC50 was 10.4 µM (inactive). For `O=C(CN1CCN(Cc2ccccc2)CC1)Nc1ccc([N+](=O)[O-])cc1C(=O)Nc1ccccc1F`, the IC50 was 24.6 µM (inactive). With `COc1cc2c(cc1OC)CN(c1nc(-c3cccnc3)nc3ccccc13)CC2` the IC50 was 6.71 µM. For `CC1(C)Cc2c(c(N3CCOCC3)nc3sc4c(NN)ncnc4c23)CS1`, the IC50 was > 79 µM (inactive). In the case of `COc1ccc(-c2cc(C(=O)N(C)Cc3ccc(OC)c(OC)c3OC)c3ccccc3n2)cc1OC`, the IC50 is reported as 10.2 µM (inactive). With `COc1cccc(-c2nn3c(-c4ccccn4)nnc3s2)c1` the IC50 was 16.1 µM (inactive). With `COc1ccc(-c2cc(NC=O)c3ncc(-c4ccc(C(C)=O)cc4)n3c2)cn1` the IC50 was 10.1 µM (inactive). For `O=c1oc2ccc3ccccc3c2cc1-c1nnc(-c2ccccc2)o1`, the IC50 was > 79 µM (inactive). Compound `COc1cc(-c2cc(NC(C)=O)c3ncc(-c4ccc(C(C)=O)cc4)n3c2)cc(OC)c1OC` has an IC50 of 7.42 µM. For `CNC(=O)COC(=O)/C=C/c1cn(-c2ccccc2)nc1-c1ccc(C)o1`, the IC50 was 14.6 µM (inactive). With `COc1cc(/C=N/NC(=O)c2ccncc2)ccc1OC(=O)c1ccccc1Cl` the IC50 was 15.8 µM (inactive). With `CCOC(=O)C1CCN(c2cc3c(cc2NC(=O)c2ccccc2Cl)n(C)c(=O)n3C)CC1` the IC50 was 15.2 µM (inactive).
